Measured values published in paper doi:10.1101/2024.08.19.608619, “Discovery of potent SARS-CoV-2 nsp3 macrodomain inhibitors uncovers lack of translation to cellular antiviral response” (bioRxiv, 2024).
Values after ≈ are worked out from the molar mass of the structure shown.

Assay: Hepatic microsomal stability, HLM
Format: in vitro ADME, human
Conditions: In vitro human liver microsomal stability

| Structure (SMILES) | clint [µL/min/mg] | perc_remaining [%] | t_half [min] |
| --- | --- | --- | --- |
| CC(C)(C)[C@H](Nc1ncnc2[nH]c(-c3cnn(CC(N)=O)c3)cc12)c1ccc2c(c1)OCCO2 (single isomer, unassigned) [ASAP-0012332] | 100.0 | 18.0 | 16.8 |
| CNC(=O)c1cc2c(N[C@H](c3ccc4c(c3)S(=O)(=O)CCC4)C(C)C)ncnc2[nH]1 (single isomer, unassigned) [ASAP-0012340] | 67.0 | 33.0 | 25.0 |
| CC(C)[C@H](Nc1ncnc2[nH]c(-c3cnn(C)c3C#N)cc12)c1ccc2c(c1)NC(=O)CO2 (single isomer, unassigned) [ASAP-0013256] | 52.0 | 44.0 | 32.3 |
| CC(C)[C@H](Nc1ncnc2[nH]c(-c3cnn(CC(=O)N(C)C)c3)cc12)c1ccc2c(c1)OCCO2 (single isomer, unassigned) [ASAP-0013833] | 500.0 | 0.0 | 3.3 |
| CC(C)[C@H](Nc1ncnc2[nH]c(-c3cnn(CC(=O)N(C)C)c3)cc12)c1ccc2c(c1)OCCO2 (single isomer, unassigned) [ASAP-0013837] | 108.0 | 18.0 | 15.4 |

Same assay, conditions: In vitro human liver microsomal stability; no cofactor

| Structure (SMILES) | perc_remaining_no_cofactor [%] |
| --- | --- |
| CC(C)(C)[C@H](Nc1ncnc2[nH]c(-c3cnn(CC(N)=O)c3)cc12)c1ccc2c(c1)OCCO2 (single isomer, unassigned) [ASAP-0012332] | 109.0 |
| CNC(=O)c1cc2c(N[C@H](c3ccc4c(c3)S(=O)(=O)CCC4)C(C)C)ncnc2[nH]1 (single isomer, unassigned) [ASAP-0012340] | 107.0 |
| CC(C)[C@H](Nc1ncnc2[nH]c(-c3cnn(C)c3C#N)cc12)c1ccc2c(c1)NC(=O)CO2 (single isomer, unassigned) [ASAP-0013256] | 109.0 |
| CC(C)[C@H](Nc1ncnc2[nH]c(-c3cnn(CC(=O)N(C)C)c3)cc12)c1ccc2c(c1)OCCO2 (single isomer, unassigned) [ASAP-0013833] | 115.0 |
| CC(C)[C@H](Nc1ncnc2[nH]c(-c3cnn(CC(=O)N(C)C)c3)cc12)c1ccc2c(c1)OCCO2 (single isomer, unassigned) [ASAP-0013837] | 114.0 |

Assay: Hepatic microsomal stability, MLM
Format: in vitro ADME
Conditions: In vitro mouse liver microsomal stability

| Structure (SMILES) | clint [µL/min/mg] | perc_remaining [%] | t_half [min] |
| --- | --- | --- | --- |
| CC(C)(C)[C@H](Nc1ncnc2[nH]c(-c3cnn(CC(N)=O)c3)cc12)c1ccc2c(c1)OCCO2 (single isomer, unassigned) [ASAP-0012332] | 39.0 | 54.0 | 43.1 |
| CNC(=O)c1cc2c(N[C@H](c3ccc4c(c3)S(=O)(=O)CCC4)C(C)C)ncnc2[nH]1 (single isomer, unassigned) [ASAP-0012340] | 47.0 | 42.0 | 35.3 |
| CC(C)[C@H](Nc1ncnc2[nH]c(-c3cnn(C)c3C#N)cc12)c1ccc2c(c1)NC(=O)CO2 (single isomer, unassigned) [ASAP-0013256] | 147.0 | 10.0 | 11.3 |
| CC(C)[C@H](Nc1ncnc2[nH]c(-c3cnn(CC(=O)N(C)C)c3)cc12)c1ccc2c(c1)OCCO2 (single isomer, unassigned) [ASAP-0013833] | 35.0 | 54.0 | 48.1 |
| CC(C)[C@H](Nc1ncnc2[nH]c(-c3cnn(CC(=O)N(C)C)c3)cc12)c1ccc2c(c1)OCCO2 (single isomer, unassigned) [ASAP-0013837] | 45.0 | 48.0 | 36.8 |

Same assay, conditions: In vitro mouse liver microsomal stability, no cofactor

| Structure (SMILES) | perc_remaining_no_cofactor [%] |
| --- | --- |
| CC(C)(C)[C@H](Nc1ncnc2[nH]c(-c3cnn(CC(N)=O)c3)cc12)c1ccc2c(c1)OCCO2 (single isomer, unassigned) [ASAP-0012332] | 106.0 |
| CNC(=O)c1cc2c(N[C@H](c3ccc4c(c3)S(=O)(=O)CCC4)C(C)C)ncnc2[nH]1 (single isomer, unassigned) [ASAP-0012340] | 106.0 |
| CC(C)[C@H](Nc1ncnc2[nH]c(-c3cnn(C)c3C#N)cc12)c1ccc2c(c1)NC(=O)CO2 (single isomer, unassigned) [ASAP-0013256] | 102.0 |
| CC(C)[C@H](Nc1ncnc2[nH]c(-c3cnn(CC(=O)N(C)C)c3)cc12)c1ccc2c(c1)OCCO2 (single isomer, unassigned) [ASAP-0013833] | 102.0 |
| CC(C)[C@H](Nc1ncnc2[nH]c(-c3cnn(CC(=O)N(C)C)c3)cc12)c1ccc2c(c1)OCCO2 (single isomer, unassigned) [ASAP-0013837] | 114.0 |

Assay: LogD
Conditions: pH 7.4; In vitro LogD

| Structure (SMILES) | logd |
| --- | --- |
| CC(C)(C)[C@H](Nc1ncnc2[nH]c(-c3cnn(CC(N)=O)c3)cc12)c1ccc2c(c1)OCCO2 (single isomer, unassigned) [ASAP-0012332] | 3.1 |
| CNC(=O)c1cc2c(N[C@H](c3ccc4c(c3)S(=O)(=O)CCC4)C(C)C)ncnc2[nH]1 (single isomer, unassigned) [ASAP-0012340] | 2.3 |
| CC(C)[C@H](Nc1ncnc2[nH]c(-c3cnn(C)c3C#N)cc12)c1ccc2c(c1)NC(=O)CO2 (single isomer, unassigned) [ASAP-0013256] | 3.4 |
| CC(C)[C@H](Nc1ncnc2[nH]c(-c3cnn(CC(=O)N(C)C)c3)cc12)c1ccc2c(c1)OCCO2 (single isomer, unassigned) [ASAP-0013833] | 2.9 |
| CC(C)[C@H](Nc1ncnc2[nH]c(-c3cnn(CC(=O)N(C)C)c3)cc12)c1ccc2c(c1)OCCO2 (single isomer, unassigned) [ASAP-0013837] | 3.0 |

Assay: In vitro kinetic solubility
Conditions: In vitro kinetic solubility, ph 7.4

| Structure (SMILES) | solubility_mean [µM] |
| --- | --- |
| CC(C)(C)[C@H](Nc1ncnc2[nH]c(-c3cnn(CC(N)=O)c3)cc12)c1ccc2c(c1)OCCO2 (single isomer, unassigned) [ASAP-0012332] | 104 (≈ 48 µg/mL) |
| CNC(=O)c1cc2c(N[C@H](c3ccc4c(c3)S(=O)(=O)CCC4)C(C)C)ncnc2[nH]1 (single isomer, unassigned) [ASAP-0012340] | 374 (≈ 160 µg/mL) |
| CC(C)[C@H](Nc1ncnc2[nH]c(-c3cnn(C)c3C#N)cc12)c1ccc2c(c1)NC(=O)CO2 (single isomer, unassigned) [ASAP-0013256] | 19 (≈ 8.41 µg/mL) |
| CC(C)[C@H](Nc1ncnc2[nH]c(-c3cnn(CC(=O)N(C)C)c3)cc12)c1ccc2c(c1)OCCO2 (single isomer, unassigned) [ASAP-0013833] | 19 (≈ 9.04 µg/mL) |
| CC(C)[C@H](Nc1ncnc2[nH]c(-c3cnn(CC(=O)N(C)C)c3)cc12)c1ccc2c(c1)OCCO2 (single isomer, unassigned) [ASAP-0013837] | 205 (≈ 97.5 µg/mL) |

Assay: Permeability Papp (AB) MDR1/MDCKII
Conditions: In vitro MDR1-MDCKII permeability, A to B, no inhibitor

| Structure (SMILES) | papp_a_to_b_mean [×10⁻⁶ cm/s] |
| --- | --- |
| CC(C)(C)[C@H](Nc1ncnc2[nH]c(-c3cnn(CC(N)=O)c3)cc12)c1ccc2c(c1)OCCO2 (single isomer, unassigned) [ASAP-0012332] | 1.01 |
| CNC(=O)c1cc2c(N[C@H](c3ccc4c(c3)S(=O)(=O)CCC4)C(C)C)ncnc2[nH]1 (single isomer, unassigned) [ASAP-0012340] | 0.891 |
| CC(C)[C@H](Nc1ncnc2[nH]c(-c3cnn(C)c3C#N)cc12)c1ccc2c(c1)NC(=O)CO2 (single isomer, unassigned) [ASAP-0013256] | 2.35 |
| CC(C)[C@H](Nc1ncnc2[nH]c(-c3cnn(CC(=O)N(C)C)c3)cc12)c1ccc2c(c1)OCCO2 (single isomer, unassigned) [ASAP-0013833] | 2.05 |
| CC(C)[C@H](Nc1ncnc2[nH]c(-c3cnn(CC(=O)N(C)C)c3)cc12)c1ccc2c(c1)OCCO2 (single isomer, unassigned) [ASAP-0013837] | 1.62 |

Same assay, conditions: In vitro MDR1-MDCKII permeability, recovery A to B, no inhibitor

| Structure (SMILES) | perc_recovery_a_to_b_mean [%] |
| --- | --- |
| CC(C)(C)[C@H](Nc1ncnc2[nH]c(-c3cnn(CC(N)=O)c3)cc12)c1ccc2c(c1)OCCO2 (single isomer, unassigned) [ASAP-0012332] | 76.5 |
| CNC(=O)c1cc2c(N[C@H](c3ccc4c(c3)S(=O)(=O)CCC4)C(C)C)ncnc2[nH]1 (single isomer, unassigned) [ASAP-0012340] | 74.2 |
| CC(C)[C@H](Nc1ncnc2[nH]c(-c3cnn(C)c3C#N)cc12)c1ccc2c(c1)NC(=O)CO2 (single isomer, unassigned) [ASAP-0013256] | 78.9 |
| CC(C)[C@H](Nc1ncnc2[nH]c(-c3cnn(CC(=O)N(C)C)c3)cc12)c1ccc2c(c1)OCCO2 (single isomer, unassigned) [ASAP-0013833] | 82.0 |
| CC(C)[C@H](Nc1ncnc2[nH]c(-c3cnn(CC(=O)N(C)C)c3)cc12)c1ccc2c(c1)OCCO2 (single isomer, unassigned) [ASAP-0013837] | 87.9 |
